The pIC50 is −log10 of the IC50, conventionally taken in molar units. Lower therefore signals a high IC50.

The text below walks through data of article PMC6071991, “Hydroxylated Polybrominated Biphenyl Ethers Exert Estrogenic Effects via Non-Genomic G Protein–Coupled Estrogen Receptor Mediated Pathways” (Environmental Health Perspectives, 2018).

Test [1] concerns the target T1, GPER (Homo sapiens, UniProt Q99527). Put plainly: SKBR3 cell-based fluorescence competitive binding assay (E2-F probe, flow cytometry). For orientation: In flow cytometry, cells or beads pass a laser one at a time.
In test [2] the target is T1, GPER. As to the kind of experiment: cell-based.
In test [3] the test system is GPER-mediated signaling in SKBR3 cells. Put plainly: cAMP assay in SKBR3 cells. It counts as cell-based, human. The conditions noted are these: for significant dose-dependent increase in cAMP production compared to control / LOEC, cAMP production: SKBR3 cells; for LOEC, cAMP production: 30 min treatment. The protocol:
SKBR3 cells ( 2×10^4 cells) were seeded in 96-well microplates which were precoated with a capture antibody for the cAMP-antibody complex (Invitrogen). […].
For orientation: cAMP levels reflect the balance of adenylyl cyclase and phosphodiesterase activity.

Test [4] shares this test system. Put plainly: Calcium mobilization assay in SKBR3 cells. It counts as cell-based, human. The conditions noted are these: for significant dose-dependent increase in calcium mobilization compared to control: SKBR3 cells; for LOECs, activation of GPER signaling pathways: abstract summary over calcium mobilization and cAMP accumulation in SKBR3 cells. (A change in cytosolic calcium serves as a functional read-out for many receptors and channels.)

The subject of the next test is human GPER. On the set-up: method as in Thomas and Dong 2006. The conditions noted are these: ref Thomas and Dong 2006; cited from earlier work.
The next test deals with rats. The conditions noted are these: exposure of pregnant rats, 1–10mg/kg, cited from earlier work.
In test [5] the test system is SKBR3 cells. Put plainly: Boyden chamber cell migration assay. The class given is cell-based, human. The conditions noted are these: for LOEC, SKBR3 cell migration, Boyden chamber assay: 48 h. The protocol:
SKBR3 cell migration was evaluated using Boyden chamber and wound-healing assays as described previously with slight modification ([Cao et al. 2017]). For the Boyden chamber assay, 24-well plates containing cell culture inserts with 8-μm pore size (Corning) were used. The cells ( 8×10^4 cells, 100μL ) were seeded in the upper chamber, and the lower chamber was supplied with 600μL phenol red–free RPMI 1640 with 10% FBS (Invitrogen). After 12 h, the cells were incubated with phenol red–free RPMI 1640 without FBS for another 12 h. […] After incubation for 48 h, the cells on the upper side of the insert membrane were removed with cotton swabs, and the cells on the lower surface of the membrane were fixed with methanol for 10 min and stained with 0.1% crystal violet (Sigma-Aldrich). Then, the cells were counted under an inverted microscope (ROCTEC) coupled to a camera (Canon), and six fields were randomly chosen per chamber. The relative cell migration was determined by comparing the average number of cells in the six fields of the treated chamber to those in the control chamber.

Test [6] deals with SKBR3 cells. As to the kind of experiment: Wound-healing cell migration assay. The conditions noted are these: for LOEC, SKBR3 cell migration, wound-healing assay: 48 h; for LOECs, promotion of SKBR3 cell migration via GPER pathways: abstract summary over Boyden chamber and wound-healing assays. The class given is cell-based, human. As for the experimental part: For the wound-healing assays, SKBR3 cells were seeded in 12-well microplates at a density of 2.5×10^5 cells/well, incubated first in phenol red–free RPMI 1640 with 10% FBS for 12 h and then in phenol red–free RPMI 1640 without FBS for another 12 h. The cell layer was wounded with a sterile 200-μL pipet tip and washed 3 times with phenol red–free RPMI 1640. […] The closure of the scratch was photographed using an inverted microscope (ROCTEC) coupled to a camera (Canon). The change in the scratch area was evaluated using Image-Pro Plus 6.0 (Media Cybernetics). The relative cell migration was calculated by comparing the change in the wound area in the treated wells with those in the control wells.

For the next test, the system named is ERα. Set-up: method as in Li et al. 2013. Particulars: ref Li et al. 2013; cited from earlier work.
Another test relates to zebrafish GPER. Set-up: method as in Fitzgerald et al. 2015. Particulars: ref Fitzgerald et al. 2015, cited from earlier work; for binding to zebrafish GPER at a single tested concentration: 1μM.
A further test deals with SH-SY5Y cells. Set-up: method as in Tian et al. 2016. The conditions noted are these: activity inhibited by GPER antagonist G15; ref Tian et al. 2016; cited from earlier work.
Where [7] appears, read: ratio between IC50 of E2 and compounds, E2 = 100%.
Setting [8] is: E2-treated SKBR3 cells, G15 pretreatment 2 h.

pIC50: −log10 of the molar value. Read-outs that look alike come from different tables or passages of the source.

T1 sequence (Q99527 whole entry): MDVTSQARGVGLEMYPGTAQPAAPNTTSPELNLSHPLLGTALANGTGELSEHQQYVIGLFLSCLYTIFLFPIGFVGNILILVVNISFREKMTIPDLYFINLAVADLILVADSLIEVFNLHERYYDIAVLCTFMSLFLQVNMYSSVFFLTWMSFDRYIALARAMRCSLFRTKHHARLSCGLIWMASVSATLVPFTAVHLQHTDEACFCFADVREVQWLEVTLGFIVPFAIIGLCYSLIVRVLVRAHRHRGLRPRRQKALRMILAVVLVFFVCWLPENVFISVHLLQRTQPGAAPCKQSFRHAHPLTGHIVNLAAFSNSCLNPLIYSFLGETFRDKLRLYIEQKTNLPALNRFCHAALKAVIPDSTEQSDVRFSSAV

Take `Oc1cc(Oc2ccc(Br)cc2Br)ccc1Br` [3ʹ-OH-BDE-028, 3'-hydroxy-2,4,4'-tribromodiphenyl ether]: the “RBA (relative binding affinity)” value at GPER [1] (setting [7]) turned out to be 8.7%. Moreover, on GPER [2], the pIC50 was 5.52.

With `Oc1c(Br)ccc(Oc2ccc(Br)cc2Br)c1Br` [3-OH-BDE-047, 3-hydroxy-2,2',4,4'-tetrabromodiphenyl ether], on GPER [1], the pIC50 was 4.92 and the “RBA (relative binding affinity)” value was 2.2%. In addition, the “significant dose-dependent increase in cAMP production compared to control” value in test [3] was “exceptions”. Also, the “significant dose-dependent increase in calcium mobilization compared to control” value in test [4] was “exceptions”.

As for `O=c1c(-c2ccc(O)cc2)coc2cc(O)cc(O)c12` [genistein], the “RBA to human GPER compared to E2” value with human GPER was 1.3–13.4%.

As to `Brc1ccc(Oc2cc(Br)c(Br)cc2Br)c(Br)c1` [BDE-099, 2,2',4,4',5-pentabromodiphenyl ether], in the test on rats (ref Ceccatelli et al. 2006), the “estrogen target genes in the uterus of female offspring” value is reported as “changes in the regulation of estrogen target genes”. The “sex steroid levels in male and female offspring” value with rats (ref Lilienthal et al. 2006) is recorded as “decreases in sex steroid levels”.

As to `Oc1cc(Oc2cc(Br)c(Br)cc2Br)c(Br)cc1Br` [5ʹ-OH-BDE-099, 5'-hydroxy-2,2',4,4',5-pentabromodiphenyl ether], the “LOEC, SKBR3 cell migration, Boyden chamber assay” value (“LOEC … Boyden chamber assay” below) in the test with SKBR3 cells [5] came out at 100 nM. In the test with SKBR3 cells [6], the “LOEC, SKBR3 cell migration, wound-healing assay” value (“LOEC … wound-healing assay” for short) worked out at 100 nM and the “LOECs, promotion of SKBR3 cell migration via GPER pathways” value (“LOECs, promotion” for short) fell in the range of 0.1 to 1 µM. Further, the pIC50 against GPER [2] is 5.89. For the same molecule, in test [4], the “LOECs, activation of GPER signaling pathways” value (“LOECs, activation” for short) was in the range of 10 to 100 nM. In addition, the “type of activity on ERα” value with ERα is “antagonists”.

Take `Oc1cc(Br)c(Oc2ccc(Br)cc2Br)cc1Br` [4ʹ-OH-BDE-049, 4'-hydroxy-2,2',4,5'-tetrabromodiphenyl ether]: the “LOEC … Boyden chamber assay” value with SKBR3 cells [5] (text: same LOECs as for the wound-healing assay) is 1000 nM. Besides, the “RBA (relative binding affinity)” value at GPER [1] (setting [7]) is recorded as 9.3%. In addition, in the test with SKBR3 cells [6], the “LOEC … wound-healing assay” value came out at 1000 nM and the “LOECs, promotion” value lay in the range of 0.1 to 1 µM. Also, the pIC50 against GPER [2] is 5.55. In addition, the “LOECs, activation” value in [4] is 10 to 100 nM.

Turning to nonylphenol, the “RBA to human GPER compared to E2” value in the test on human GPER was 1.3–13.4%.

On to `Oc1c(Br)cc(Br)c(Oc2cc(Br)c(Br)cc2Br)c1Br` [3ʹ-OH-BDE-154, 3'-hydroxy-2,2',4,4',5,6'-hexabromodiphenyl ether], for which, in the test with SKBR3 cells [5], the “LOEC … Boyden chamber assay” value stood at 100 nM. Also, in the test on SKBR3 cells [6], the “LOEC … wound-healing assay” value is listed as 100 nM and the “LOECs, promotion” value lay within 0.1 to 1 µM. This molecule also showed a pIC50 against GPER [2] of 5.89. Moreover, the “LOECs, activation” value in [4] lay within 10 to 100 nM. Besides, the “type of activity on ERα” value in the test on ERα is on record as “antagonists”.

In the case of `CC(C)(c1cc(Br)c(O)c(Br)c1)c1cc(Br)c(O)c(Br)c1` [tetrabromobisphenol A], the “binding to zebrafish GPER at a single tested concentration” value in the test on zebrafish GPER is reported as “effective binding”.

As to `Oc1cccc(Oc2ccc(Br)cc2Br)c1` [3ʹ-OH-BDE-007, 3'-hydroxy-2,4-dibromodiphenyl ether], the “RBA (relative binding affinity)” value on GPER [1] (setting [7]) is on record as 10.0%. In addition, on GPER [2], the pIC50 was 5.59.

As to `CC(C)(c1cc(Cl)c(O)c(Cl)c1)c1cc(Cl)c(O)c(Cl)c1` [tetrachlorobisphenol A], the “binding to zebrafish GPER at a single tested concentration” value with zebrafish GPER is given as “effective binding”.

Regarding `Oc1ccccc1Oc1ccc(Br)cc1` [2ʹ-OH-BDE-003, 2'-hydroxy-4-monobromodiphenyl ether], the “RBA (relative binding affinity)” value at GPER [1] (setting [7]) came out at 1.3%. For the same molecule, the pIC50 against GPER [2] is 4.70.

For the molecule `Oc1c(Br)c(Br)c(Oc2cc(Br)c(Br)cc2Br)c(Br)c1Br` [4-OH-BDE-187, 4-hydroxy-2,2',3,4',5,5',6-heptabromodiphenyl ether], on GPER [1] (setting [7]), the “RBA (relative binding affinity)” value is listed as 4.2%. The molecule further gave a pIC50 at GPER [2] of 5.21.

Take `Oc1c(Br)cc(Br)c(Oc2ccc(Br)cc2Br)c1Br` [3-OH-BDE-100, 3-hydroxy-2,2',4,4',6-pentabromodiphenyl ether]: the “RBA (relative binding affinity)” value at GPER [1] is reported as 7.2%. The “significant dose-dependent increase in cAMP production compared to control” value in [3] is listed as “exceptions”. Besides, the pIC50 on GPER [2] is 5.44. Also, the “significant dose-dependent increase in calcium mobilization compared to control” value in [4] is recorded as “exceptions”. For the same molecule, the “type of activity on ERα” value with ERα was “antagonists”.

In the case of `Oc1cc(Br)c(Br)c(Br)c1Oc1ccc(Br)cc1Br` [6-OH-BDE-085, 6-hydroxy-2,2',3,4,4'-pentabromodiphenyl ether], in the test with ERα, the “type of activity on ERα” value is “antagonists”.

On to `Brc1ccc(Oc2ccc(Br)cc2Br)c(Br)c1` [BDE-047, 2,2',4,4'-tetrabromodiphenyl ether], for which the “effect on migration of SH-SY5Y cells” value in the test with SH-SY5Y cells is “stimulated the migration”.

As to `Clc1ccc(C(c2ccc(Cl)cc2)C(Cl)(Cl)Cl)cc1` [2,2-bis(p-chlorophenyl)-1,1,1-trichloroethane], the “RBA to human GPER compared to E2” value in the test with human GPER is 0.2–1.3%.

Consider `CC(C)(c1ccc(O)cc1)c1ccc(O)cc1` [BPA, bisphenol A], for which the “RBA to zebrafish GPER” value in the test with zebrafish GPER is on record as 15.8%. The “RBA to human GPER compared to E2” value in the test on human GPER is 2.8%.

Regarding `Clc1ccc(C(c2ccccc2Cl)C(Cl)Cl)cc1` (stereo not drawn) [2-(2-chlorophenyl)-2-(4-chlorophenyl)-1,1-dichloroethane], the “RBA to human GPER compared to E2” value in the test with human GPER is 0.2–1.3%.

For the molecule `Oc1c(Br)c(Br)c(Br)c(Br)c1Oc1cc(Br)c(Br)cc1Br` [6-OH-BDE-180, 6-hydroxy-2,2',3,4,4',5,5'-heptabromodiphenyl ether], on GPER [1] (setting [7]), the “RBA (relative binding affinity)” value is 5.4%. This molecule showed a pIC50 against GPER [2] of 5.32.

Regarding `CC(=O)c1ccc2c(c1)C1C=CCC1C(c1cc3c(cc1Br)OCO3)N2` (stereo not drawn) [G1, reference compound], in the test with SKBR3 cells [5], the “LOEC … Boyden chamber assay” value stood at 1 nM. Also, the “LOEC, cAMP production” value in [3] worked out at 1 nM. In the test on SKBR3 cells [6], the “LOEC … wound-healing assay” value came to 1 nM.

In the case of `Brc1cc2c(cc1[C@@H]1Nc3ccccc3[C@@H]3C=CC[C@@H]31)OCO2` [G15, reference compound], in the test on SKBR3 cells [5] (1μM OH-PBDEs, 10μM G15), the “cell migration after G15 pretreatment versus OH-PBDE alone, Boyden chamber” value is “significantly less cell migration”. The “cAMP production after G15 pretreatment versus vehicle pretreatment” value in test [3] (setting [8]) was “significantly lower”. In the test on SKBR3 cells [6] (1μM OH-PBDEs, 10μM G15), the “cell migration after G15 pretreatment versus OH-PBDE alone, wound-healing” value was “significantly less cell migration”. The “calcium mobilization after G15 pretreatment versus vehicle pretreatment” value in test [4] (setting [8]) is recorded as “significantly lower”.

Regarding `O=C1C2(Cl)C3(Cl)C4(Cl)C(Cl)(Cl)C5(Cl)C3(Cl)C1(Cl)C5(Cl)C24Cl` (stereo not drawn) [kepone], the “RBA to human GPER compared to E2” value in the test with human GPER is 1.3–13.4%.

As to `Oc1ccc(-c2cc(Cl)ccc2Cl)c(Cl)c1` [4-hydroxy-2,2ʹ,5ʹ-trichloro-biphenyl], the “RBA to human GPER compared to E2” value in the test with human GPER is on record as 0.2–1.3%.

On to `Oc1c(Br)c(Br)c(Oc2c(Br)cc(Br)c(Br)c2Br)c(Br)c1Br` [4ʹ-OH-BDE-201, 4'-hydroxy-2,2',3,3',4,5',6,6'-octabromodiphenyl ether], for which the “RBA (relative binding affinity)” value on GPER [1] (setting [7]) is on record as 4.9%. The same molecule gave a pIC50 at GPER [2] of 5.28.

Take `C[C@]12CC[C@@H]3c4ccc(O)cc4CC[C@H]3[C@@H]1CC[C@@H]2O` [E2, 17β-estradiol, reference compound]: the “LOEC … Boyden chamber assay” value in the test on SKBR3 cells [5] came out at 1 nM. Besides, in test [3], the “LOEC, cAMP production” value came out at 1 nM. Moreover, the “LOEC … wound-healing assay” value in the test on SKBR3 cells [6] was found to be 1 nM.
